Series [1] can be described thus: in vitro binding to rat plasma proteins. In kind it is in vitro ADME. The following applies: compound concentration 10 μg/mL, read-out: Protein Binding (converted). The text has this:
(§1) Table I and II show, as an example, the significant differences in T1/2 and protein binding (%) between metabolites of formula (I) and corresponding parent compounds of formula (III).

Series [2] is described as follows: T1/2 after single bolus i.v. administration in rat. The following applies: in vivo, iv; after single bolus i.v. administration in rat (15 mg/Kg); read-out: T½ (converted).
Text: Furthermore, the compounds of formula (I) have a pharmacokinetic profile particularly advantageous for the therapeutic use. In fact, as compared to the compounds of formula (III), the compounds of the invention, administered “in vivo” by the i.v. route, show a longer T1/2 associated to a reduced clearance time.
as §1

The subject of series [3] is IL-8 induced chemotaxis of human PMNs. In words: IL-8 induced PMN chemotaxis assay. Conditions: read-out: inhibition of IL-8-induced PMN migration. In kind it is cell-based. How it is done: The compounds of the invention of formula (I) were evaluated in vitro for their ability to inhibit chemotaxis of polymorphonucleate leukocytes (hereinafter referred to as PMNs) and monocytes induced by the fractions of IL-8 and GRO-α and C5a and directly compared to the corresponding parent 4-isobutyl compounds of formula (III). For this purpose, in order to isolate the PMNs from heparinized human blood, taken from healthy adult volunteers, mononucleates were removed by means of sedimentation on dextran (according to the procedure disclosed by W. J. Ming et al., J. Immunol., 138, 1469, 1987) and red blood cells by a hypotonic solution. The cell vitality was calculated by exclusion with Trypan blue, whilst the ratio of the circulating polymorphonucleates was estimated on the cytocentrifugate after staining with Diff Quick. […]
The compounds of the invention in formula (I) were evaluated at a concentration ranging between 10^−6 and 10^−10 M; for this purpose they were added, at the same concentration, both to the lower pores and the upper pores of the microchamber. […]

Structures are written as SMILES.

Regarding `CC(C)Cc1ccc([C@@H](C)C(=O)NCCCN2CCCCC2)cc1` [(R)-2-[(4-isobutyl)phenyl]-N-[3″-(N′-piperidino)propyl]propionamide, reference compound], the fraction unbound at 10 μg/mL in series [1] is 0.2. In series [2], the half-life was 1 h.

Turning to `CC(C)Cc1ccc([C@@H](C)C(=O)NS(C)(=O)=O)cc1` [(R)-2-[(4-isobutyl)phenyl]propionyl methanesulfonamide, reference compound], the fraction unbound at 10 μg/mL in series [1] is under 0.01. Also, in series [2], the half-life was 0.5 h.

`CC(Cc1ccc([C@@H](C)C(=O)NS(C)(=O)=O)cc1)C(=O)O` (stereo partly drawn) [Example 1, (2R) (2″ R, S) 2-[4′-(2″-carboxyprop-1-yl)phenyl]propionyl methanesulfonamide]: in series [3] (compound concentration 10^−6M), the inhibition at 1 µM is 66 ± 8%. The inhibition at 0.01 µM in series [3] (compound concentration 10^−8M) turned out to be 49 ± 9%. Besides, in series [1], the fraction unbound at 10 μg/mL was 0.28. In addition, in series [2], the half-life was 2 h.

On to `CC(Cc1ccc([C@@H](C)C(=O)NCCCN2CCCCC2)cc1)C(=O)O` (stereo partly shown) [Example 4], for which, in series [1], the fraction unbound at 10 μg/mL is 0.3. Besides, the half-life in series [2] was 2 h.
